Experimental data as given in ChEMBL document CHEMBL4138105, “LL-37-derived short antimicrobial peptide KR-12-a5 and its d-amino acid substituted analogs with cell selectivity, anti-biofilm activity, synergistic effect with conventional antibiotics, and anti-inflammatory activity” (Eur J Med Chem, 2017).
Values after ≈ are worked out from the molar mass of the structure shown. Active and inactive are the calls of the source. The calls are words filed in the database; no cut-off is given here.

What was measured:
[1] = tested on: Staphylococcus aureus; experiment: Potency index, ratio of LL-37 MIC to compound MIC for methicillin resistant Staphylococcus aureus CCARM 3089; format: functional
[2] = Therapeutic index, ratio of MHC10 for human RBC to MIC for Escherichia coli KCTC 1682; format: toxicity; settings: red blood cells (RBC), pooled result: one value given for 6 cell lines, strains, targets or settings, read-out: TI
[3] = tested on: Enterococcus faecium; experiment: Antibacterial activity against Vancomycin-resistant Enterococcus faecium ATCC 51559 after 24 hrs; format: functional; settings: ATCC 51559, 24 h
[4] = tested on: Escherichia coli; experiment: Antibacterial activity against Escherichia coli KCTC 1682 in presence of 2.5 mM CaCl2 after 24 hrs; format: functional; settings: KCTC 1682, 24 h
[5] = tested on: Pseudomonas aeruginosa; experiment: Synergistic antibacterial activity against multidrug-resistant Pseudomonas aeruginosa CCARM 2095 after 72 hrs in presence of oxacillin by chequerboard assay; format: functional
[6] = tested on: Staphylococcus aureus; experiment: Antibacterial activity against Staphylococcus aureus KCTC 1621 in presence of 4.5 mM KCl after 24 hrs; format: functional; settings: KCTC 1621, 24 h
[7] = tested on: Staphylococcus aureus; experiment: Potency index, ratio of LL-37 MIC to compound MIC for methicillin resistant Staphylococcus aureus CCARM 3095; format: functional
[8] = tested on: RAW264.7; experiment: Anti-inflammatory activity in mouse RAW264.7 cells assessed as reduction in LPS-induced MCP-1 production at 10 to 20 uM preincubated for 1 hr followed by LPS stimulation measured after 6 hrs by ELISA; format: functional, cell-based
[9] = tested on: Pseudomonas aeruginosa; experiment: Potency index, ratio of LL-37 MBIC90 to compound MBIC90 for antibiofilm activity against multidrug-resistant Pseudomonas aeruginosa CCARM 2095; format: functional
[10] = tested on: Staphylococcus aureus; experiment: Antibacterial activity against Staphylococcus aureus KCTC 1621 assessed as cytoplasmic membrane depolarization at 2 times MIC by disC3-5 dye based fluorescence assay; format: functional, organism-based
[11] = tested on: Escherichia coli; experiment: Antibacterial activity against Escherichia coli KCTC 1682 in presence of 4.5 mM KCl after 24 hrs; format: functional; settings: KCTC 1682, 24 h
[12] = tested on: RAW264.7; experiment: Anti-inflammatory activity in mouse RAW264.7 cells assessed as reduction in LPS-induced nitric oxide production at 10 to 20 uM after 24 hrs by Griess assay; format: functional, cell-based
[13] = tested on: Pseudomonas aeruginosa; experiment: Antibacterial activity against multidrug-resistant Pseudomonas aeruginosa CCARM 2095 after 24 hrs; format: functional; settings: CCARM 2095, 24 h
[14] = tested on: NIH3T3; experiment: Cytotoxicity against mouse NIH/3T3 cells up to 128 uM after 48 hrs by MTT assay; format: cell-based; settings: nih3t3, 48 h
[15] = tested on: Staphylococcus aureus; experiment: Antibacterial activity against Staphylococcus aureus KCTC 1621 in presence of 2.5 mM CaCl2 after 24 hrs; format: functional; settings: KCTC 1621, 24 h
[16] = tested on: Staphylococcus aureus; experiment: Antibacterial activity against Staphylococcus aureus KCTC 1621 in presence of 150 mM NaCl after 24 hrs; format: functional; settings: KCTC 1621, 24 h
[17] = tested on: RAW264.7; experiment: Cytotoxicity against mouse RAW264.7 cells up to 128 uM after 48 hrs by MTT assay; format: cell-based; settings: raw264.7, 48 h
[18] = tested on: Pseudomonas aeruginosa; experiment: Synergistic antibacterial activity against multidrug-resistant Pseudomonas aeruginosa CCARM 2095 after 72 hrs in presence of chloramphenicol by chequerboard assay; format: functional
[19] = tested on: Escherichia coli; experiment: Antibacterial activity against Escherichia coli KCTC 1682 after 24 hrs; format: functional; settings: KCTC 1682, 24 h
[20] = tested on: Erythrocyte; experiment: Hemolytic activity in human RBC after 1 hr; format: ADME, cell-based
[21] = tested on: Staphylococcus aureus; experiment: Potency index, ratio of melittin MIC to compound MIC for methicillin resistant Staphylococcus aureus CCARM 3089; format: functional
[22] = tested on: Pseudomonas aeruginosa; experiment: Antibiofilm activity against multidrug-resistant Pseudomonas aeruginosa CCARM 2095 after 24 hrs by crystal violet staining based assay; format: functional
[23] = tested on: Escherichia coli; experiment: Antibacterial activity against Escherichia coli KCTC 1682 in presence of 1 mM MgCl2 after 24 hrs; format: functional; settings: KCTC 1682, 24 h
[24] = tested on: Pseudomonas aeruginosa; experiment: Antibacterial activity against multidrug-resistant Pseudomonas aeruginosa CCARM 2109 after 24 hrs; format: functional; settings: CCARM 2109, 24 h
[25] = tested on: Lipid bilayer; experiment: Binding affinity to EYPE/EYPG small unilamellar vesicles assessed as intrinsic tryptophan acrylamide quenching constant by fluorescence assay (reference value: 5.95 to 7.56 /M)
[26] = tested on: Pseudomonas aeruginosa; experiment: Potency index, ratio of LL-37 MIC to compound MIC for multidrug-resistant Pseudomonas aeruginosa CCARM 2095; format: functional
[27] = tested on: RAW264.7; experiment: Anti-inflammatory activity in mouse RAW264.7 cells assessed as reduction in LPS-induced TNF-alpha mRNA expression at 10 uM after 3 hrs by RT-PCR analysis; format: functional, cell-based
[28] = tested on: Staphylococcus aureus; experiment: Antibacterial activity against Staphylococcus aureus KCTC 1621 in presence of 6 uM NH4Cl after 24 hrs; format: functional; settings: KCTC 1621, 24 h
[29] = tested on: Pseudomonas aeruginosa; experiment: Potency index, ratio of LL-37 MIC to compound MIC for multidrug-resistant Pseudomonas aeruginosa CCARM 2109; format: functional
[30] = tested on: Bacillus subtilis; experiment: Antibacterial activity against Bacillus subtilis KCTC 3068 after 24 hrs; format: functional; settings: KCTC 3068, 24 h
[31] = tested on: Staphylococcus aureus; experiment: Potency index, ratio of melittin MIC to compound MIC for methicillin resistant Staphylococcus aureus CCARM 3090; format: functional
[32] = tested on: RAW264.7; experiment: Anti-inflammatory activity in mouse RAW264.7 cells assessed as reduction in LPS-induced MCP-1 mRNA expression at 10 uM after 3 hrs by RT-PCR analysis; format: functional, cell-based
[33] = tested on: Staphylococcus aureus; experiment: Antibacterial activity against Staphylococcus aureus KCTC 1621 in presence of 1 mM MgCl2 after 24 hrs; format: functional; settings: KCTC 1621, 24 h
[34] = tested on: RAW264.7; experiment: Anti-inflammatory activity in mouse RAW264.7 cells assessed as reduction in LPS-induced iNOS mRNA expression at 5 uM after 6 hrs by RT-PCR analysis; format: functional, cell-based
[35] = tested on: Pseudomonas aeruginosa; experiment: Antibacterial activity against Pseudomonas aeruginosa KCTC 1637 after 24 hrs; format: functional; settings: KCTC 1637, 24 h
[36] = tested on: Escherichia coli; experiment: Antibacterial activity against Escherichia coli KCTC 1682 in presence of 20% human serum after 24 hrs; format: functional; settings: KCTC 1682, 24 h
[37] = tested on: Pseudomonas aeruginosa; experiment: Potency index, ratio of melittin MIC to compound MIC for multidrug-resistant Pseudomonas aeruginosa CCARM 2095; format: functional
[38] = tested on: RAW264.7; experiment: Anti-inflammatory activity in mouse RAW264.7 cells assessed as reduction in LPS-induced IL-6 mRNA expression at 10 uM after 3 hrs by RT-PCR analysis; format: functional, cell-based
[39] = tested on: Staphylococcus aureus; experiment: Antibacterial activity against methicillin resistant Staphylococcus aureus CCARM 3090 after 24 hrs; format: functional; settings: CCARM 3090, 24 h
[40] = tested on: Staphylococcus epidermidis; experiment: Antibacterial activity against Staphylococcus epidermidis KCTC 1917 after 24 hrs; format: functional; settings: KCTC 1917, 24 h
[41] = tested on: Pseudomonas aeruginosa; experiment: Potency index, ratio of melittin MIC to compound MIC for multidrug-resistant Pseudomonas aeruginosa CCARM 2109; format: functional
[42] = tested on: Escherichia coli; experiment: Antibacterial activity against Escherichia coli KCTC 1682 in presence of 6 uM NH4Cl after 24 hrs; format: functional; settings: KCTC 1682, 24 h
[43] = tested on: RAW264.7; experiment: Anti-inflammatory activity in mouse RAW264.7 cells assessed as reduction in LPS-induced TNF-alpha production at 10 to 20 uM preincubated for 1 hr followed by LPS stimulation measured after 6 hrs by ELISA; format: functional, cell-based
[44] = Binding affinity to EYPC/cholesterol small unilamellar vesicles assessed as intrinsic tryptophan acrylamide quenching constant by fluorescence assay (reference value: 5.95 to 7.56 /M)

CC[C@H](C)[C@H](NC(=O)[C@H](CC(C)C)NC(=O)[C@@H](CCCCN)NC(=O)[C@@H](NC(=O)[C@@H](NC(=O)[C@H](CCCNC(=N)N)NC(=O)[C@@H](N)CCCCN)[C@@H](C)CC)C(C)C)C(=O)N[C@@H](CC(C)C)C(=O)N[C@@H](CCCCN)C(=O)N[C@@H](Cc1c[nH]c2ccccc12)C(=O)N[C@@H](CC(C)C)C(=O)N[C@@H](CCCNC(=N)N)C(N)=O
Ratio [1]: 2 - 4 | selectivity ratio [2]: 16.8 | MIC [3]: 4 µM (≈ 6.26 µg/mL) | MIC [4]: 8 µM | fractional inhibitory concentration index (FICI) [5]: 0.375 | MIC [6]: 2 µM | Ratio [7]: 2 - 4 | Activity [8]: Active | fold change (FC) [9]: 4 - 8 | Activity [10]: Active | MIC [11]: 4 µM | Activity [12]: Active | MIC [13]: 8 µM (≈ 12.5 µg/mL) | Activity [14]: Non-Toxic | MIC [15]: 4 µM | MIC [16]: 2 µM | Activity [17]: Non-Toxic | fractional inhibitory concentration index (FICI) [18]: 0.375 | MIC [19]: 4 µM (≈ 6.26 µg/mL) | MHC10 [20]: 79 µM | Ratio [21]: 2 - 4 | MBIC90 [22]: 8 µM | MIC [23]: 8 µM | MIC [24]: 4 µM (≈ 6.26 µg/mL) | KSV [25]: 1.02 M⁻¹ | Ratio [26]: 2 - 4 | Activity [27]: Active | MIC [28]: 2 µM | Ratio [29]: 2 - 4 | MIC [30]: 8 µM (≈ 12.5 µg/mL) | Ratio [31]: 2 - 4 | Activity [32]: Active | MIC [33]: 8 µM | Activity [34]: Active | MIC [35]: 8 µM (≈ 12.5 µg/mL) | MIC [36]: 4 µM | Ratio [37]: 2 - 4 | Activity [38]: Active | MIC [39]: 4 µM (≈ 6.26 µg/mL) | MIC [40]: 4 µM (≈ 6.26 µg/mL) | Ratio [41]: 2 - 4 | MIC [42]: 4 µM | Activity [43]: Active | KSV [44]: 2.21 M⁻¹
